Experimental data from patent publication US20210253562A1, “ACYLSUFONAMIDE COMPOUNDS USEFUL AS EP3 RECEPTOR ANTAGONISTS” (Janssen Pharmaceutica NV, priority 2018, published 2021).
Read-outs that look alike come from different tables or passages of the source.

Experiments:
[1] = target: T1, CHO cells over-expressing the EP3 receptor (Homo sapiens, UniProt P43115); test: CHO cell cAMP assay; EP3 cAMP antagonist dose response (sulprostone reference), HTRF; assay type: cell-based; conditions: sulprostone 700 nM (EC80) and FSK 2 μM (EC70); read-out: CHO_cAMP IC50
T1 construct: expressed in transfected cells; host or cells: CHO cells
T1 sequence (P43115 1-390): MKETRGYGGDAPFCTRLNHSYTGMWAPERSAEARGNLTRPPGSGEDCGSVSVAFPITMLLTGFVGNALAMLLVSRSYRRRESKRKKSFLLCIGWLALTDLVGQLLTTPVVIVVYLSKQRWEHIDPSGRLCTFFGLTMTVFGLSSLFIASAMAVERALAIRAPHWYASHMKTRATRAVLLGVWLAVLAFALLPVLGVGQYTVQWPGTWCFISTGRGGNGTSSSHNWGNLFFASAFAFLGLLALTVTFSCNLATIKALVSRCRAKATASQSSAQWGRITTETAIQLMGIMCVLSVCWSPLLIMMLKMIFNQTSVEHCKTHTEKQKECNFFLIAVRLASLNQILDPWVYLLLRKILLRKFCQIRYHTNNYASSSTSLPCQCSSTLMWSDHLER
Method: Biological Example 2: CHO Cell cAMP Assay
This assay monitored the cAMP generation in CHO cells over-expressing the EP3 receptor in the presence or absence of antagonist stimulated with Forskolin (FSK, CAS No. 66428-89-5) and a known EP3 Agonist (sulprostone, CAS No. 60325-46-4). For detection, a homogeneous competitive immunoassay (Time Resolved Fluorescence Energy Transfer (hTR-FRET)) was used.
Cells (6K cells per well) were plated in Poly-D-Lysine coated plates the day before the assay was to be run and were incubated at 37° C. One hour before the assay the media was removed and replaced with assay buffer (500 mL HBSS (+Ca)+2.5 mL 1M HEPES+6.66 mL 7.5% BSA) (starved at 37° C.). At the start of the assay the buffer was removed from the cells and replaced with buffer containing test compound(s). Sulprostone at an EC80 dose (700 nM) and FSK at an EC70 dose (2 μM) were added to initiate the reaction (37° C. for 30 minutes).
FSK increases cAMP production and sulprostone decreases cAMP production produced by FSK. In this assay, EP3 antagonists will increase the cAMP to the level of cAMP generated by FSK alone.
The reaction was terminated with the addition of cAMP detection reagents (labeled cAMP and labeled cAMP antibody in lysis buffer (HTRF reagent, which utilizes a cryptate-labeled anti-cAMP and d2-labeled cAMP-d2 is an HTRF acceptor fluorophore)). Approximately one hour later the plates were read on an Envision (Perkin Elmer) in HTRF mode. Well results were calculated based on a ratio of counts at 665 nm and 615 nm (data output was a calculation of the ratio: (read @665 nm/read @ 615 nm)*1000. For test compounds dosed serially, well results were converted to nM cAMP using a cAMP standard run on each plate. nM cAMP from a set of wells dosed with test compound(s) were plotted. nM cAMP was calculated for each well from a standard curve located on each plate (P1-12 and P13-24) by first calculating the slope and deriving the intercept(b):
[formula] NScAMP_s tan dard_cruve=m(nM cAMP_s tan dard_curve)+b
NSP, NSN, NSsample were converted to nM cAMP using the following equation: […]
IC50 values were determined from a […] (Hill equation) of a single 11-point compound dosing. A best-fit curve was determined by the minimum sum of squares method plotting cAMP produced vs compound concentration.

[2] = target: T2, EP3 membrane (EP3 receptor) (Homo sapiens, UniProt P43115); test: [3H]-PGE2 binding; EP3 competition binding (SPA)
T2 construct: purchased Millipore HTS092M
T2 sequence (P43115 1-390): T1 sequence (P43115 1-390)
Outline: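 SPA competition at room temperature, 2 h: EP3 membranes 2 μg/well, 2 nM [3H]-PGE2, 0.1% DMSO, in Tris/MgCl2/EDTA buffer pH 7.4. Compounds in 1:3 serial dilution; scintillation read; Ki by one-site nonlinear fit.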

COc1ccc(Br)cc1S(=O)(=O)NC(=O)NC/C=C1\CCCc2cnn(Cc3ccc(Cl)cc3Cl)c21 [Compound #42, (E)-5-bromo-N-((2-(1-(2,4-dichlorobenzyl)-1,4,5,6-tetrahydro-7H-indazol-7-ylidene)ethyl)carbamoyl)-2-methoxybenzenesulfonamide]
IC50 [1]: 6 nM | Ki [2]: 3 nM

COc1ccc(Cl)cc1S(=O)(=O)NC(=O)NC/C=C1\CCCc2cnn(Cc3ccc(Cl)cc3Cl)c21 [Compound #43, (E)-5-chloro-N-((2-(1-(2,4-dichlorobenzyl)-1,4,5,6-tetrahydro-7H-indazol-7-ylidene)ethyl)carbamoyl)-2-methoxybenzenesulfonamide]
IC50 [1]: 8 nM | Ki [2]: 3 nM

COc1ccccc1S(=O)(=O)NC(=O)CC/C=C1\CCCc2cnn(Cc3ccc(Cl)cc3Cl)c21 [Compound #44, (E)-4-(1-(2,4-dichlorobenzyl)-1,4,5,6-tetrahydro-7H-indazol-7-ylidene)-N-((2-methoxyphenyl)sulfonyl)butanamide]
IC50 [1]: 177 nM | Ki [2]: 95 nM

O=C(NC/C(F)=C1/CCCc2cnn(Cc3ccc(Cl)cc3Cl)c21)NS(=O)(=O)c1cc(Cl)c(Cl)s1 [Compound #45, (E)-4,5-dichloro-N-((2-(1-(2,4-dichlorobenzyl)-1,4,5,6-tetrahydro-7H-indazol-7-ylidene)-2-fluoroethyl)carbamoyl)thiophene-2-sulfonamide]
IC50 [1]: 6700 nM | Ki [2]: 1300 nM

O=C(NS(=O)(=O)c1cc(Cl)c(Cl)s1)OC/C=C1\COCc2cnn(Cc3ccc(Cl)cc3Cl)c21 [Compound #46, (Z)-2-(1-(2,4-dichlorobenzyl)-1,4-dihydropyrano[4,3-c]pyrazol-7(6H)-ylidene)ethyl ((4,5-dichlorothiophen-2-yl)sulfonyl)carbamate]
IC50 [1]: 8 nM | Ki [2]: 2 nM

O=C(NC/C=C1\CCCc2c(C(F)F)nn(Cc3ccc(Cl)cc3Cl)c21)NS(=O)(=O)c1ccc(Cl)cc1 [Compound #47, (E)-4-chloro-N-((2-(1-(2,4-dichlorobenzyl)-3-(difluoromethyl)-1,4,5,6-tetrahydro-7H-indazol-7-ylidene)ethyl)carbamoyl)benzenesulfonamide]
IC50 [1]: 120 nM | Ki [2]: 65 nM

O=C(NC/C=C1\CC(F)(F)Cc2cnn(Cc3ccc(Cl)cc3Cl)c21)NS(=O)(=O)c1ccc(Cl)cc1 [Compound #48, (E)-4-chloro-N-((2-(1-(2,4-dichlorobenzyl)-5,5-difluoro-1,4,5,6-tetrahydro-7H-indazol-7-ylidene)ethyl)carbamoyl)benzenesulfonamide]
IC50 [1]: 14 nM | Ki [2]: 5 nM

O=C(NC/C=C1\COCc2cnn(Cc3ccc(Cl)cc3Cl)c21)NS(=O)(=O)c1cc(Cl)c(Cl)s1 [Compound #49, (Z)-4,5-dichloro-N-((2-(1-(2,4-dichlorobenzyl)-1,4-dihydropyrano[4,3-c]pyrazol-7(6H)-ylidene)ethyl)carbamoyl)thiophene-2-sulfonamide]
IC50 [1]: 1 nM | Ki ([2]; unit nM): 0.4 nM

O=C(NS(=O)(=O)c1ccc(Cl)cc1)OC/C=C1/c2c(cnn2Cc2ccc(Cl)cc2Cl)CCC1F (stereo not shown) [Compound #50, (Z)-2-(1-(2,4-dichlorobenzyl)-6-fluoro-1,4,5,6-tetrahydro-7H-indazol-7-ylidene)ethyl ((4-chlorophenyl)sulfonyl)carbamate]
IC50 [1]: 75 nM | Ki [2]: 29 nM

O=C(NS(=O)(=O)c1ccc(Cl)cc1)OC/C=C1\c2c(cnn2Cc2ccc(Cl)cc2Cl)CCC1F (stereo not shown) [Compound #51, (E)-2-(1-(2,4-dichlorobenzyl)-6-fluoro-1,4,5,6-tetrahydro-7H-indazol-7-ylidene)ethyl ((4-chlorophenyl)sulfonyl)carbamate]
IC50 [1]: 15700 nM | Ki [2]: > 10000 nM

O=C(CC/C=C1\CCCc2cnn(-c3cccc(-c4ccccc4)c3)c21)NS(=O)(=O)c1cc(Cl)c(Cl)s1 [Compound #52, (E)-4-(1-([1,1′-biphenyl]-3-yl)-1,4,5,6-tetrahydro-7H-indazol-7-ylidene)-N-((4,5-dichlorothiophen-2-yl)sulfonyl)butanamide]
IC50 [1]: 3 nM | Ki [2]: 1 nM

O=C(CC/C=C1\CCCc2cnn(-c3cccc(-c4ccc(Cl)cc4Cl)c3)c21)NS(=O)(=O)c1cc(Cl)c(Cl)s1 [Compound #53, (E)-4-(1-(2′,4′-dichloro-[1,1′-biphenyl]-3-yl)-1,4,5,6-tetrahydro-7H-indazol-7-ylidene)-N-((4,5-dichlorothiophen-2-yl)sulfonyl)butanamide]
IC50 [1]: 18 nM | Ki [2]: 4 nM

O=C(NC/C(F)=C1\COCc2cnn(Cc3ccc(Cl)cc3Cl)c21)NS(=O)(=O)c1cc(Cl)c(Cl)s1 [Compound #54, (E)-4,5-dichloro-N-((2-(1-(2,4-dichlorobenzyl)-1,4-dihydropyrano[4,3-c]pyrazol-7(6H)-ylidene)-2-fluoroethyl)carbamoyl)thiophene-2-sulfonamide]
IC50 [1]: 24 nM | Ki [2]: 3 nM

CN(C/C=C1\COCc2cnn(Cc3ccc(Cl)cc3Cl)c21)C(=O)NS(=O)(=O)c1cc(Cl)c(Cl)s1 [Compound #55, (Z)-4,5-dichloro-N-((2-(1-(2,4-dichlorobenzyl)-1,4-dihydropyrano[4,3-c]pyrazol-7(6H)-ylidene)ethyl)(methyl)carbamoyl)thiophene-2-sulfonamide]
IC50 [1]: 11 nM | Ki [2]: 3 nM

O=C(CC/C(F)=C1\CCCc2cnn(Cc3ccc(Cl)cc3Cl)c21)NS(=O)(=O)c1cc(Cl)c(Cl)s1 [Compound #56, (Z)-4-(1-(2,4-dichlorobenzyl)-1,4,5,6-tetrahydro-7H-indazol-7-ylidene)-N-((4,5-dichlorothiophen-2-yl)sulfonyl)-4-fluorobutanamide]
IC50 [1]: 4 nM | Ki [2]: 1 nM

O=C(CC/C=C1\COCc2cnn(Cc3ccc(Cl)cc3Cl)c21)NS(=O)(=O)c1cc(Cl)c(Cl)s1 [Compound #57, (Z)-4-(1-(2,4-dichlorobenzyl)-1,4-dihydropyrano[4,3-c]pyrazol-7(6H)-ylidene)-N-((4,5-dichlorothiophen-2-yl)sulfonyl)butanamide]
IC50 [1]: 3 nM | Ki [2]: 1 nM

COc1ccccc1S(=O)(=O)NC(=O)NC/C=C1\COCc2cnn(Cc3ccc(Cl)cc3Cl)c21 [Compound #58, (Z)—N-((2-(1-(2,4-dichlorobenzyl)-1,4-dihydropyrano[4,3-c]pyrazol-7(6H)-ylidene)ethyl)carbamoyl)-2-methoxybenzenesulfonamide]
IC50 [1]: 1300 nM | Ki [2]: 110 nM

CN(C/C(F)=C1\CCCc2cnn(Cc3ccc(Cl)cc3Cl)c21)C(=O)NS(=O)(=O)c1cc(Cl)c(Cl)s1 [Compound #59, (Z)-4,5-dichloro-N-((2-(1-(2,4-dichlorobenzyl)-1,4,5,6-tetrahydro-7H-indazol-7-ylidene)-2-fluoroethyl)(methyl)carbamoyl)thiophene-2-sulfonamide]
IC50 [1]: 12 nM | Ki [2]: 5 nM

O=C(NC/C(F)=C1/COCc2cnn(Cc3ccc(Cl)cc3Cl)c21)NS(=O)(=O)c1cc(Cl)c(Cl)s1 [Compound #60, (Z)-4,5-dichloro-N-((2-(1-(2,4-dichlorobenzyl)-1,4-dihydropyrano[4,3-c]pyrazol-7(6H)-ylidene)-2-fluoroethyl)carbamoyl)thiophene-2-sulfonamide]
IC50 [1]: 4 nM | Ki [2]: 7 nM

O=C(CC/C(F)=C1\COCc2cnn(Cc3ccc(Cl)cc3Cl)c21)NS(=O)(=O)c1cc(Cl)c(Cl)s1 [Compound #61, (E)-4-(1-(2,4-dichlorobenzyl)-1,4-dihydropyrano[4,3-c]pyrazol-7(6H)-ylidene)-N-((4,5-dichlorothiophen-2-yl)sulfonyl)-4-fluorobutanamide]
IC50 [1]: 17 nM | Ki [2]: 7 nM
